Data taken from patent US10251931B2, “Cyclic peptides and methods using same” (priority 2014, dated 2019).
Entries after “also recorded” stand apart in the source; their conditions may differ. Where two headings read alike, the source gives them in different places. Positions of bridges follow the written chain, without caps; N, C: chain ends. Non-standard residues stand in square brackets, D forms with d. Residues, ends and D or L forms follow the SMILES beside them. Pro(cis-4-Trz(4-CH2CH2Ph)) = O=C(O)[C@@H]1C[C@H](n2cc(CCc3ccccc3)nn2)CN1

Assays:
HIV-1 gp120 = target: T1, HIV-1 gp120 (Human immunodeficiency virus type 1 group M subtype B, UniProt P35961); format: binding
T1 construct: Expression and Purification of Wild-Type gp120YU-2; made in house; host or cells: HEK 293F
Description: SPR competition binding assays were used to assess the structural elements required for cyclic hexapeptide binding to gp120. […] In an attempt to restore the lost contact, the length of the two linkers was changed (Linker 1 and Linker 2 in FIG. 12).
SPR experiments were performed on a Biacore 3000 optical biosensor (GE Healthcare). All experiments were carried out at 25° C. using standard PBS buffer pH=7.4 with 0.005% surfactant Tween. A CM5 sensor chip was derivatized by standard 1-ethyl-3-(3-dimethylaminopropyl) carbodiimide (EDC)/N-hydroxysuccinimide (NHS) chemistry, and coupling was done through ligand amine groups. Antibody 2B6R (α-human IL5R) was immobilized for negative control surfaces. For competition experiments, soluble four domain CD4 and 17b antibody were immobilized on the surface through standard EDC/NHS chemistry. For kinetic analyses, typically 2000-3000 RUs of protein reagents were immobilized on SPR chips, and analytes were passed over the surface at 50-100 μL/min. Surface regeneration was achieved by a 5 μL injection of 10 mM HCl solution at 100 μL/min. […] Regeneration of the surface was achieved by a single 10 second pulse of 1.3 M NaCl/35 mM NaOH and single 5-second pulse of 10 mM glycine, pH 1.5, for sCD4 and mAb 17b, respectively. All analyses were performed in triplicate.
The inhibition curve was converted into a calibration curve by the use of a fitting function. The fitting was done using the 4-parameter Equation (1) from BIAevaluation software,
The cyclic peptides of the invention were tested against HIV-1 gp120 by SPR competition assays as described elsewhere herein. A mixture of the cyclic peptide/gp120 solutions was passed over SPR chip immobilized with CD4 and 17b separately. The competition assay evaluated the ability of each peptide to inhibit the binding between gp120 and both soluble CD4 and 17b antibody, a surrogate for co-receptor.

S375W mutant of gp120 = S375W mutant of gp120 (Human immunodeficiency virus type 1 group M subtype B, UniProt P35961, S370W); experiment: SPR competition with gp120 mutant S375W; format: binding, HIV-1
S375H mutant of gp120 = S375H mutant of gp120 (Human immunodeficiency virus type 1 group M subtype B, UniProt P35961, S370H); experiment: SPR competition with gp120 mutant S375H; format: binding, HIV-1
HIV-1 Bal.01 pseudovirus = experiment: Inhibition of HIV-1 infection against Bal.01 (HOS.T4.R5 cells, luciferase); format: cell-based
[1] = target: T2, Trypsin (from bovine pancreas) (Bos taurus, UniProt P00760); experiment: In vitro proteolytic stability, trypsin; details: 5 h incubation, 37° C.
T2 sequence (P00760 24-246): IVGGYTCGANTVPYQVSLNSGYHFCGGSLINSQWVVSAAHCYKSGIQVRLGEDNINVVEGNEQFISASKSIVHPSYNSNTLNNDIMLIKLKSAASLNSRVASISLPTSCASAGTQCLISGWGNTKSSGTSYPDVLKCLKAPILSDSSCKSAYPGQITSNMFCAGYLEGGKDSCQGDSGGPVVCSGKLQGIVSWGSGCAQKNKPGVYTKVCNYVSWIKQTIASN

HIV-1 JR-FL pseudovirus = experiment: Inhibition of HIV-1 infection against JR-FL (HOS.T4.R5 cells, luciferase); format: cell-based
[2] = target: Chymotrypsin (bovine pancreas) (Bos taurus, UniProt P00766); experiment: In vitro proteolytic stability, chymotrypsin
tissue explants model = details: concentrations up to 100 μM; cited from earlier work
[3] = system: viruses pseudotyped with VSV-G; details: cited from earlier work
monomeric gp120 = monomeric gp120 (Human immunodeficiency virus type 1 group M subtype B, UniProt P35961); details: read-out: KD, binding to monomeric gp120; cited from earlier work
[4] = system: HIV-1 subtype A, B and C isolates; details: read-out: IC50 range, neutralization of viral infection; cited from earlier work

Compound: CC[C@H](C)[C@H](N)C(=O)N[C@H]1CCC(=O)NCCCC[C@@H](C(N)=O)NC(=O)[C@H](Cc2c[nH]c3ccccc23)NC(=O)[C@@H]2C[C@H](n3cc(CCc4ccccc4)nn3)CN2C(=O)[C@H]([C@@H](C)CC)NC(=O)[C@H](CC(N)=O)NC1=O [AAR024, (3S,6S,15S,18S,21S,25S,26aS)-3-((1H-indol-3-yl)methyl)-18-(2-amino-2-oxoethyl)-15-((2S,3S)-2-amino-3-methylpentanamido)-21-((S)-sec-butyl)-1,4,12,16,19,22-hexaoxo-25-(4-phenethyl-1H-1,2,3-triazol-1-yl)hexacosahydropyrrolo[2,1-f][1,4,7,10,13,19]hexaazacyclotetracosine-6-carboxamide] (H-IENI[Pro(cis-4-Trz(4-CH2CH2Ph))]WK-NH2; lactam 2-7)
- fold more active than the linear analogue (HIV-1 gp120): > 40 fold
- Dual receptor site (CD4 and 17b) inhibition of gp120, in words (HIV-1 gp120; SPR competition): retained the dual receptor site inhibitory signature of linear PTs; also recorded: dual inhibitors
- Activity against S375W mutant of gp120 (S375W mutant of gp120): inactive
- Activity against S375H mutant of gp120 (S375H mutant of gp120): inactive

Compound: CC[C@H](C)[C@@H]1NC(=O)[C@H](CC(N)=O)NC(=O)[C@@H](N)CC(=O)NCCCC[C@@H](C(N)=O)NC(=O)[C@H](Cc2c[nH]c3ccccc23)NC(=O)[C@@H]2C[C@H](n3cc(CCc4ccccc4)nn3)CN2C1=O [AAR029, (3S,6S,14S,17S,20S,24S,25aS)-3-((1H-indol-3-yl)methyl)-14-amino-17-(2-amino-2-oxoethyl)-20-((S)-sec-butyl)-1,4,12,15,18,21-hexaoxo-24-(4-phenethyl-1H-1,2,3-triazol-1-yl)tetracosahydro-1H-pyrrolo[2,1-f][1,4,7,10,13,18]hexaazacyclotricosine-6-carboxamide] (H-DNI[Pro(cis-4-Trz(4-CH2CH2Ph))]WK-NH2; lactam 1-6)
- Infection inhibition against Bal.01, in words (HIV-1 Bal.01 pseudovirus): inhibiting activity
- fold enhanced activity vs AAR029b (HIV-1 gp120): ~2 fold
- fold more active than the linear analogue (HIV-1 gp120): > 200 fold
- Dual receptor site (CD4 and 17b) inhibition of gp120, in words (HIV-1 gp120; SPR competition): dual inhibitors
- Resistance to trypsin, in words [1]: completely resistant
- Infection inhibition against JR-FL, in words (HIV-1 JR-FL pseudovirus): inhibiting activity
- State after chymotrypsin treatment, in words ([2]; 30 min incubation, 37° C.): almost unchanged
- Resistance to chymotrypsin, in words ([2]; 5 h incubation, 37° C.): completely resistant
- Intactness after chymotrypsin digestion, in words ([2]; 40 h incubation, HPLC and ESI-MS): remained intact
- Time the peptide remained stable ([2]; in the presence of trypsin and chymotrypsin, 37° C., pH 8.2): > 40 h

Compound: (3S,6S,12S,15S,19S,20aS)-3-((1H-indol-3-yl)methyl)-12-amino-15-((S)-sec-butyl)-19-(4-ferrocenyl-1H-1,2,3-triazol-1-yl)-1,4,10,13,16-pentaoxoicosahydropyrrolo [1,2-d][1,4,7,10,14]pentaazacyclooctadecine-6-carboxamide [AAR040]
- Dual receptor site (CD4 and 17b) inhibition of gp120, in words (HIV-1 gp120; SPR competition): dual inhibitors

Compound: (3S,6S,14S,17S,20S,24S,25aS)-3-((1H-indol-3-yl)methyl)-14-amino-17-(2-amino-2-oxoethyl)-20-butyl-24-(4-ferrocenyl-1H-1,2,3-triazol-1-yl)-1,4,12,15,18,21-hexaoxotetracosahydro-1H-pyrrolo[2,1-f][1,4,7,10,13,18]hexaazacyclotricosine-6-carboxamide [AAR036]
- Dual receptor site (CD4 and 17b) inhibition of gp120, in words (HIV-1 gp120; SPR competition): dual inhibitors

Compound: (3S,6S,14S,17S,20S,24S,25aS)-3-((1H-indol-3-yl)methyl)-14-amino-17-(2-amino-2-oxoethyl)-20-cyclohexyl-24-(4-ferrocenyl-1H-1,2,3-triazol-1-yl)-1,4,12,15,18,21-hexaoxotetracosahydro-1H-pyrrolo[2,1-f][1,4,7,10,13,18]hexaazacyclotricosine-6-carboxamide [AAR029b-Chg]
- Infection inhibition against Bal.01, in words (HIV-1 Bal.01 pseudovirus): inhibiting activity

Compound: (3S,6S,14S,17S,20S,24S,25aS)-3-((1H-indol-3-yl)methyl)-14-amino-17-(2-amino-2-oxoethyl)-20-cyclopropyl-24-(4-ferrocenyl-1H-1,2,3-triazol-1-yl)-1,4,12,15,18,21-hexaoxotetracosahydro-1H-pyrrolo[2,1-f][1,4,7,10,13,18]hexaazacyclotricosine-6-carboxamide [AAR042]
- Dual receptor site (CD4 and 17b) inhibition of gp120, in words (HIV-1 gp120; SPR competition): dual inhibitors

Compound: (3S,6S,14S,17S,20S,24S,25aS)-14-amino-17-(2-amino-2-oxoethyl)-3-(benzo[b]thiophen-3-ylmethyl)-20-(sec-butyl)-24-(4ferocenyl-1H-1,2,3-triazol-1-yl)-1,4,12,15,18,21-hexaoxotetracosahydro-1H-pyrrolo[2,1-f][1,4,7,10,13,18]hexaazacyclotricosine-6-carboxamide [AAR029E]
- Infection inhibition against Bal.01, in words (HIV-1 Bal.01 pseudovirus): inhibiting activity
- Dual receptor site (CD4 and 17b) inhibition of gp120, in words (HIV-1 gp120): dual inhibitors

Compound: (3S,6S,15S,18S,21S,25S,26aS)-3-((1H-indol-3-yl)methyl)-18-(2-amino-2-oxoethyl)-15-((2S,3S)-2-amino-3-methylpentanamido)-21-((S)-sec-butyl)-25-(4-ferrocenyl-1H-1,2,3-triazol-1-yl)-1,4,12,16,19,22-hexaoxohexacosahydropyrrolo[2,1-f][1,4,7,10,13,19]hexaazacyclotetracosine-6-carboxamide [AAR024b]
- Infection inhibition against Bal.01, in words (HIV-1 Bal.01 pseudovirus): inhibiting activity
- Dual receptor site (CD4 and 17b) inhibition of gp120, in words (HIV-1 gp120; SPR competition): enhanced dual receptor site antagonizing activities; also recorded: dual inhibitors
- Infection inhibition against JR-FL, in words (HIV-1 JR-FL pseudovirus): inhibiting activity

Compound: (S)-4-((S)-2-((S)-2-((2S,4S)-1-(L-arginyl-L-isoleucyl-L-asparaginyl-L-asparaginyl-L-alloisoleucyl)-4-(4-ferrocenyl-1H-1,2,3-triazol-1-yl)pyrrolidine-2-carboxamido)-3-(1H-indol-3-yl)propanamido)-3-hydroxypropanamido)-5-(((S)-1-(((S)-1-(((S)-1-amino-4-(methylthio)-1-oxobutan-2-yl)amino)-4-(methylthio)-1-oxobutan-2-yl)amino)-1-oxopropan-2-yl)amino)-5-oxopentanoic acid [HNG156]
- Toxicity in tissue explants model (tissue explants model): no detectable toxicity
- Neutralization of VSV-G pseudotyped viruses, in words [3]: not
- Kd (monomeric gp120): 0.007 µM
- IC50 [4]: 0.08 to 62.5 µM
